From PubChem BioAssay (NCI)
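48-hour exposure; five concentrations; linearly interpolated endpoints. GI50: concentration for 50% inhibition of growth. TGI denotes the concentration required for complete inhibition of growth.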

How the values were obtained:
Assay in all cases: inhibition of tumour cell growth, NCI panel, 48 h
OVCAR-5 ovarian = tested on: OVCAR-5 ovarian
K-562 leukemia = tested on: K-562 leukemia
SNB-19 CNS = tested on: SNB-19 CNS
COLO 205 colon = tested on: COLO 205 colon
CAKI-1 renal = tested on: CAKI-1 renal
IGROV1 ovarian = tested on: IGROV1 ovarian
OVCAR-4 ovarian = tested on: OVCAR-4 ovarian
HS 578T breast = tested on: HS 578T breast
A498 renal = tested on: A498 renal
HCT-116 colon = tested on: HCT-116 colon
SNB-75 CNS = tested on: SNB-75 CNS
UO-31 renal = tested on: UO-31 renal
SK-MEL-2 melanoma = tested on: SK-MEL-2 melanoma
MDA-MB-231 breast = tested on: MDA-MB-231 breast
NCI-H226 lung = tested on: NCI-H226 lung
HOP-62 NSCLC = tested on: HOP-62 NSCLC
ACHN renal = tested on: ACHN renal
786-0 renal = tested on: 786-0 renal
HOP-92 NSCLC = tested on: HOP-92 NSCLC
CCRF-CEM leukemia = tested on: CCRF-CEM leukemia
OVCAR-3 ovarian = tested on: OVCAR-3 ovarian
NCI-H460 lung = tested on: NCI-H460 lung
HCC-2998 colon = tested on: HCC-2998 colon
SF-295 CNS = tested on: SF-295 CNS
EKVX NSCLC = tested on: EKVX NSCLC
HT29 colon = tested on: HT29 colon
KM12 colon = tested on: KM12 colon
SN12C renal = tested on: SN12C renal
NCI/ADR-RES ovarian = tested on: NCI/ADR-RES ovarian
PC-3 prostate = tested on: PC-3 prostate
SK-MEL-28 melanoma = tested on: SK-MEL-28 melanoma
BT-549 breast = tested on: BT-549 breast
SF-539 CNS = tested on: SF-539 CNS
UACC-62 melanoma = tested on: UACC-62 melanoma
OVCAR-8 ovarian = tested on: OVCAR-8 ovarian
SW-620 colon = tested on: SW-620 colon
RXF 393 renal = tested on: RXF 393 renal
MDA-MB-435 = tested on: MDA-MB-435
U251 CNS = tested on: U251 CNS
NCI-H522 lung = tested on: NCI-H522 lung
MCF7 breast = tested on: MCF7 breast
MOLT-4 leukemia = tested on: MOLT-4 leukemia
M14 melanoma = tested on: M14 melanoma
MDA-MB-468 breast = tested on: MDA-MB-468 breast
SK-MEL-5 melanoma = tested on: SK-MEL-5 melanoma
T-47D breast = tested on: T-47D breast
HCT-15 colon = tested on: HCT-15 colon
SF-268 CNS = tested on: SF-268 CNS
HL-60(TB) leukemia = tested on: HL-60(TB) leukemia
A549 NSCLC = tested on: A549 NSCLC
SR leukemia = tested on: SR leukemia
SK-OV-3 ovarian = tested on: SK-OV-3 ovarian
NCI-H23 lung = tested on: NCI-H23 lung
TK-10 renal = tested on: TK-10 renal
LOX IMVI melanoma = tested on: LOX IMVI melanoma
RPMI-8226 leukemia = tested on: RPMI-8226 leukemia
DU-145 prostate = tested on: DU-145 prostate
UACC-257 melanoma = tested on: UACC-257 melanoma
MALME-3M melanoma = tested on: MALME-3M melanoma

Structure (SMILES): COc1ccc2[nH]c(=O)c(CSc3ccccc3Nc3nccc(-c4ccc(C(F)(F)F)cc4)n3)cc2c1
- GI50 (OVCAR-5 ovarian): 13 µM
- TGI (OVCAR-5 ovarian): 25.7 µM
- GI50 (K-562 leukemia): 4.46 µM
- TGI (K-562 leukemia): 21.6 µM
- GI50 (SNB-19 CNS): 13.5 µM
- TGI (SNB-19 CNS): 26.3 µM
- GI50 (COLO 205 colon): 11.1 µM
- TGI (COLO 205 colon): 23.1 µM
- GI50 (CAKI-1 renal): 9.2 µM
- TGI (CAKI-1 renal): 21.2 µM
- GI50 (IGROV1 ovarian): 9.67 µM
- TGI (IGROV1 ovarian): 21.4 µM
- GI50 (OVCAR-4 ovarian): 3.42 µM
- TGI (OVCAR-4 ovarian): 13.7 µM
- GI50 (HS 578T breast): 13.2 µM
- TGI (HS 578T breast): 36.5 µM
- GI50 (A498 renal): 13.8 µM
- TGI (A498 renal): 26.7 µM
- GI50 (HCT-116 colon): 3.14 µM
- TGI (HCT-116 colon): 10.6 µM
- GI50 (SNB-75 CNS): 12.5 µM
- TGI (SNB-75 CNS): 25.5 µM
- GI50 (UO-31 renal): 4.5 µM
- TGI (UO-31 renal): 18.1 µM
- GI50 (SK-MEL-2 melanoma): 10.8 µM
- TGI (SK-MEL-2 melanoma): 22.7 µM
- GI50 (MDA-MB-231 breast): 11.1 µM
- TGI (MDA-MB-231 breast): 23.1 µM
- GI50 (NCI-H226 lung): 4.76 µM
- TGI (NCI-H226 lung): 18.8 µM
- GI50 (HOP-62 NSCLC): 15.4 µM
- TGI (HOP-62 NSCLC): 28.7 µM
- GI50 (ACHN renal): 5 µM
- TGI (ACHN renal): 16.9 µM
- GI50 (786-0 renal): 6.43 µM
- TGI (786-0 renal): 19.1 µM
- GI50 (HOP-92 NSCLC): 2.2 µM
- TGI (HOP-92 NSCLC): 17.3 µM
- GI50 (CCRF-CEM leukemia): 3.84 µM
- TGI (CCRF-CEM leukemia): 18.5 µM
- GI50 (OVCAR-3 ovarian): 3.48 µM
- TGI (OVCAR-3 ovarian): 15.2 µM
- GI50 (NCI-H460 lung): 4.05 µM
- TGI (NCI-H460 lung): 14.5 µM
- GI50 (HCC-2998 colon): 5.27 µM
- TGI (HCC-2998 colon): 18.1 µM
- GI50 (SF-295 CNS): 10.1 µM
- TGI (SF-295 CNS): 21.6 µM
- GI50 (EKVX NSCLC): 10.3 µM
- TGI (EKVX NSCLC): 22.4 µM
- GI50 (HT29 colon): 3.64 µM
- TGI (HT29 colon): 12.7 µM
- GI50 (KM12 colon): 5.6 µM
- TGI (KM12 colon): 17.9 µM
- GI50 (SN12C renal): 3.74 µM
- TGI (SN12C renal): 13.1 µM
- GI50 (NCI/ADR-RES ovarian): 4.32 µM
- TGI (NCI/ADR-RES ovarian): 17.5 µM
- GI50 (PC-3 prostate): 3.2 µM
- TGI (PC-3 prostate): 12.6 µM
- GI50 (SK-MEL-28 melanoma): 11.8 µM
- TGI (SK-MEL-28 melanoma): 24.1 µM
- GI50 (BT-549 breast): 6.57 µM
- TGI (BT-549 breast): 19.7 µM
- GI50 (SF-539 CNS): 10.3 µM
- TGI (SF-539 CNS): 21.9 µM
- GI50 (UACC-62 melanoma): 11.8 µM
- TGI (UACC-62 melanoma): 24 µM
- GI50 (OVCAR-8 ovarian): 9.59 µM
- TGI (OVCAR-8 ovarian): 21.4 µM
- GI50 (SW-620 colon): 5.43 µM
- TGI (SW-620 colon): 18.2 µM
- GI50 (RXF 393 renal): 3.03 µM
- TGI (RXF 393 renal): 8.62 µM
- GI50 (MDA-MB-435): 8.95 µM
- TGI (MDA-MB-435): 21.1 µM
- GI50 (U251 CNS): 10.5 µM
- TGI (U251 CNS): 22.3 µM
- GI50 (NCI-H522 lung): 3.82 µM
- TGI (NCI-H522 lung): 16.2 µM
- GI50 (MCF7 breast): 2.97 µM
- TGI (MCF7 breast): 11 µM
- GI50 (MOLT-4 leukemia): 3.59 µM
- TGI (MOLT-4 leukemia): 15.7 µM
- GI50 (M14 melanoma): 11.2 µM
- TGI (M14 melanoma): 23.2 µM
- GI50 (MDA-MB-468 breast): 2.65 µM
- TGI (MDA-MB-468 breast): 10.2 µM
- GI50 (SK-MEL-5 melanoma): 10.5 µM
- TGI (SK-MEL-5 melanoma): 22.2 µM
- GI50 (T-47D breast): 5.66 µM
- TGI (T-47D breast): 20.3 µM
- GI50 (HCT-15 colon): 4.69 µM
- TGI (HCT-15 colon): 16.7 µM
- GI50 (SF-268 CNS): 5.15 µM
- TGI (SF-268 CNS): 18.2 µM
- GI50 (HL-60(TB) leukemia): 8.6 µM
- TGI (HL-60(TB) leukemia): 28.2 µM
- GI50 (A549 NSCLC): 5.28 µM
- TGI (A549 NSCLC): 18.5 µM
- GI50 (SR leukemia): 2.91 µM
- TGI (SR leukemia): 11.1 µM
- GI50 (SK-OV-3 ovarian): 15.8 µM
- TGI (SK-OV-3 ovarian): 29.3 µM
- GI50 (NCI-H23 lung): 6.28 µM
- TGI (NCI-H23 lung): 19.3 µM
- GI50 (TK-10 renal): 17.4 µM
- TGI (TK-10 renal): 31.2 µM
- GI50 (LOX IMVI melanoma): 3.06 µM
- TGI (LOX IMVI melanoma): 11.5 µM
- GI50 (RPMI-8226 leukemia): 3.27 µM
- TGI (RPMI-8226 leukemia): 15.4 µM
- GI50 (DU-145 prostate): 8.89 µM
- TGI (DU-145 prostate): 21 µM
- GI50 (UACC-257 melanoma): 13 µM
- TGI (UACC-257 melanoma): 25.7 µM
- GI50 (MALME-3M melanoma): 12 µM
- TGI (MALME-3M melanoma): 24.3 µM
